The source of these data is patent US20200093864A1, “NOVEL THERAPEUTIC STEM CELL COMPOSITIONS WITH AN ACTIVE OXIDATIVE PHOSPHORYLATION SITE AND THEIR PREPARATION” (priority 2018, published 2020).

The test system of experiment [1] is human adenocarcinoma cells. Put plainly: Growth of cultured human adenocarcinoma cells (Example 7). Conditions: for growth of cultured human adenocarcinoma cells (in words): Table 2 summary; for cell growth (10^5): cell numbers on day 4, 10^5 cells passaged day 0; for cell growth (10^5) / cell growth (% of control): TR2Co and TR 30 mg/dL, hMSC 10^5 added; for cell growth (% of control): day 4. The class given is cell-based. The method, then: Human adenocarcinoma cells were cultured in RPMI medium with added fetal bovine serum and antibiotics, as reported by McCully K S et al in Research Communications in Chemical Pathology and Pharmacology, 1992; 77: 125-128. Equal numbers (10^5) of adenocarcinoma cells were trypsinized and passaged on day 0, and the cells were refed with media containing test compounds on days 1 and 3. Cell numbers were determined by trypsinization on day 4. Thioretinaco (TR2Co) and thioretinamide (TR) were synthesized, as previously described (McCully U.S. Pat. No. 4,618,685; McCully U.S. Pat. No. 4,925,931) and dissolved in absolute ethanol. Propylene glycol (PG) was added to the ethanol solutions of the test compounds, the ethanol was evaporated under reduced pressure at 37° C., and the resulting solutions in propylene glycol were added to the culture media. Human mesenchymal stem cells (hMSC) were incubated with cell culture medium containing TR2Co, NAD^+ and H2PO4^− in an atmosphere containing 5% ozone (O3), to produce activated stem cells and 10^5 hMSC were added to the culture medium containing adenocarcinoma cells. Equal numbers (10^5) of hMSC without exposure to TR2Co, O3, NAD^+ and H2PO4^− served as controls.

Experiment [2] concerns human pancreatic cancer cells growing in athymic mice. Conditions: direct injection into subcutaneous tumors, cited from earlier work; for tumor growth inhibition (in words): 6 weeks, vs propylene glycol vehicle controls.
The subject of experiment [3] is human pancreatic carcinoma cells. Conditions: added in the culture medium, after 4 days, compared with ethanol vehicle controls; cited from earlier work.
In experiment [4] the test system is cultured normal fibroblasts. Conditions: thioretinaco in culture medium; cited from earlier work.
Experiment [5] relates to person with metastatic prostate cancer. Briefly: Example 1: intravenous activated stem cell therapy, patient case. Type of experiment: in vivo, human. As to conditions: following luprolide therapy, over three months; 8.0 before. The method, then: Preparation of human mesenchymal stem cells containing an increased concentration of the active site of oxidative phosphorylation, TR2CoO3O2NAD^+H2PO4^−, is accomplished by incubation of stem cells in cell culture medium containing thioretinaco (TR2Co), 30 mg/dL, and […] (NAD^+H2PO4^−), 30 mg/dL, and exposed to an atmosphere containing ozone […], 1-10% by volume. Human mesenchymal stem cells are isolated by liposuction or by bone marrow aspiration, followed by collagenase digestion, filtration of cellular debris, centrifugation and adherence of the cellular pellet to the surface of the cell culture dish. Adherent mesenchymal stem cells are maintained in cell culture medium for 4-5 days at about 37 degrees centigrade at atmospheric pressure until 90% confluency is achieved, subsequently passaged by trypsinization four additional times, and washed in buffered saline for use. Aliquots of the mesenchymal stem cells are checked for cell viability, and absence of fungal, bacterial, endotoxin and mycoplasma contamination. Multiple doses of 10^8 cells are delivered in 100 ml of sterile saline intravenously to achieve a total dose of 2.5×10^10 cells over a period of two years. The final concentration of TR2CoO3O2NAD^+H2PO4^− within the activated stem cells is approximately 10-300 μg/g.
A person was evaluated for treatment of metastatic prostate cancer. […]

Consider `CC1=C(/C=C/C(C)=C/C=C/C(C)=C/C(=O)NC2CCSC2=O)C(C)(C)CCC1` (stereo not drawn) [TR, N-homocysteine thiolactonyl retinamide], for which, in experiment [1], the “growth of cultured human adenocarcinoma cells (in words)” value was “significantly inhibit”, the “cell growth (10^5)” value was 1.4 ± 0.50 10^5 and the “cell growth (% of control)” value is on record as 19 % of control. Besides, the “tumor growth inhibition (in words)” value in experiment [2] is reported as “no growth inhibition”. In experiment [3], the “cellular growth (in words)” value is listed as “inhibition of cellular growth”.
As for `C/C1=C2/[N-][C@H]([C@H](CC(N)=O)[C@@]2(C)CCC(=O)NC[C@@H](C)OP(=O)([O-])O[C@H]2[C@@H](O)[C@@H](n3cnc4cc(C)c(C)cc43)O[C@@H]2CO)[C@]2(C)N=C(/C(C)=C3N=C(/C=C4N=C1[C@@H](CCC(N)=O)C\4(C)C)[C@@H](CCC(N)=O)[C@]\3(C)CC(N)=O)[C@@H](CCC(N)=O)[C@]2(C)CC(N)=O.[CH2-][C@H]1O[C@@H](n2cnc3c(N)ncnc32)[C@H](O)[C@@H]1O.[Co]` [adenosyl cobalamin], the “tumor growth inhibition (in words)” value in experiment [2] is on record as “no growth inhibition”.
For the compound `N[C@H]1CCSC1=O.[O-][Cl+3]([O-])([O-])O` [homocysteine thiolactone perchlorate], the “tumor growth inhibition (in words)” value in experiment [2] is listed as “no growth inhibition”.
For “N-homocysteine thiolactonyl retinamido cobalamin [TR2Co]”, in experiment [1], the “growth of cultured human adenocarcinoma cells (in words)” value was “significantly inhibit”, the “cell growth (10^5)” value is 2.5 ± 0.82 10^5 and the “cell growth (% of control)” value was 33 % of control. In addition, the “reduction of tumor weight” value in experiment [2] (after 6 weeks of growth, compared with propylene glycol vehicle controls) is 50%. Further, the “cellular growth (in words)” value in experiment [3] is reported as “inhibition of cellular growth”. Besides, the “growth of cultured normal fibroblasts (in words)” value in experiment [4] is “Only the highest concentrations of thioretinaco decrease growth”.
As for homocysteine thiolactonyl cobalamin, in experiment [2], the “tumor growth inhibition (in words)” value is listed as “no growth inhibition”.
In the case of luprolide, the PSA value in experiment [5] is 0.1 ng/mL.
